Experimental data as given in patent US8642656B2, “Calixarene-based peptide conformation mimetics, methods of use, and methods of making” (priority 2004, dated 2014).
Like-named read-outs stand apart in the source and are kept apart here. Ends that are not written are not given here.

Key:
LPS from S. marcascens = assay: LPS neutralization assay (Limulus amoebocyte lysate, QCL-1000); format: biochemical, Serratia marcascens; conditions: read-out: IC50 values (μM) for LPS binding, Serratia
In short: (§1)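 In vitro quantitative LAL test: compounds inhibiting activation by 0.04 units LPS reduce yellow pNA formation (405-410 nm). 0.04 units equals 0.01 ng P. aeruginosa or E. coli 0111:B4 LPS and 0.03 ng S. typhimurium or S. marcascens LPS. Sigmoidal fits yield IC50.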

LPS from K. pneumoniae = assay: as above; format: biochemical, Klebsiella pneumoniae; conditions: read-out: IC50 values (μM) for LPS binding, Klebsiella
In short: (§2)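 Compounds were tested for inhibition of LPS-triggered activation of the Limulus amoebocyte lysate proenzyme, which cleaves a chromogenic substrate to release p-nitroaniline read at 405-410 nm. Each LPS was used at 0.04 units. IC50 came from sigmoidal dose-response fits.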

MA148 tumor vessels = assay: Histological analysis of microvessel density, anti-CD31 staining, MA148 tumors; format: in vivo, mice; conditions: MA148, 10 mg/kg; mean ± standard error, 20 images
Experimental: (§3) Immunohistochemistry was used to assess microvessel density and the extent of total cell apoptosis. Approximately, tumors of the same size and with no apparent necrosis were selected for processing. On the last day of treatment mice were sacrificed and tumors were excised. Tumor tissue was embedded in tissue freezing medium (Miles Inc, Elkart, Ind.) and shock frozen in liquid nitrogen. Sections of tissue (10 μm thickness) were prepared for immunohistochemical analysis. For this, tissue sections were brought to room temperature, air dried overnight, and then fixed in acetone for 10 minutes. Slides were allowed to air dry for at least 30 minutes and were washed three limes for 5 minutes each in phosphate-buffered saline (PBS, pH 7.4). Samples were then blocked with PBS containing 0.1% bovine serum albumin and 3% human serum albumin for at least 30 minutes at room temperature in a humidified box. Samples were subsequently incubated with phycoerytrin (PE)-conjugated monoclonal antibody to CD31 (PECAM-1) in a 1:50 dilution (Pharmigen, San Diego, Calif.) to stain for microvessel density.
(§4) Digital images were stored and processed using Adobe Photoshop (Adobe Inc., Mountain View Calif.). Quantification of microvessel density, were determined as described previously (Dings et al., Cancer Res 63, 382-385 (2003)). Statistical analysis was performed using the Student's t-test.

[1] = Hematocrit levels, first (MA148) study; format: in vivo, mice; conditions: 10 mg/kg; last day of treatment; vehicle 47±5.7
Experimental: (§5) As an indirect measurement of general toxicity, body weights of mice were monitored twice weekly, using a digital balance (Ohaus Florham, N.J.). To determine hematocrit levels, blood samples were extracted by tail vein bleedings one day after terminating treatment, and blood was collected in heparinized micro-hematocrit capillary lubes (Fisher Pittsburgh, Pa.). Samples were spun down for 10 minutes in a micro-hematocrit centrifuge (Clay-Adams; NY), and the amount of hematocrit was determined using an international microcapillary reader (IEC; Needham, Mass.).

MA148 tumor = assay: TUNEL staining for total cell apoptosis, MA148 tumors; format: in vivo, mice; conditions: MA148, 10 mg/kg; mean ± standard error, 20 images
Experimental: (§6) To assess the extent of total cell apoptosis, tumor tissue sections were stained by using the TUNEL (terminal deoxyribonucleotidyl transferase-mediated dUTP-nick-end labeling) assay, which was performed according to the manufacturer's instructions (In situ cell death detection kit, fluorescein; TUNEL, Roche). After 1-hour incubation at room temperature, slides were washed with PBS and immediately imaged using an Olympus BX-60 fluorescence microscope at 200× magnification.

[2] = tested on: MA148 human ovarian carcinoma; conditions: 10 mg/kg/day; Dings et al., Cancer Lett 194; cited from earlier work
LPS from P. aeruginosa = assay: LPS neutralization assay (Limulus amoebocyte lysate, QCL-1000); format: biochemical, Pseudomonas aeruginosa; conditions: read-out: IC50 values (μM) for LPS binding, P.a.
In short: as §1

B16F10 tumor cells = assay: Proliferation of B16F10 tumor cells; format: cell-based, murine
[3] = Hematocrit levels, study with B16 tumors in immune competent mice; format: in vivo; conditions: vehicle 51±1.4
Experimental: as §5

LPS from S. typhimurium = assay: LPS neutralization assay (Limulus amoebocyte lysate, QCL-1000); format: biochemical, Salmonella typhimurium; conditions: read-out: IC50 values (μM) for LPS binding, Salmonella
In short: as §1

fibroblasts = assay: Proliferation of fibroblasts (general cell toxicity check); format: cell-based
[4] = tested on: LPS from E. coli serotype 0111:B4; assay: LPS neutralization assay (Limulus amoebocyte lysate, QCL-1000); format: biochemical; conditions: read-out: IC50 values (μM) for LPS binding, E. coli 0111:B4
In short: as §1

[5] = tested on: LPS from E. coli serotype 055:B5; assay: as above; format: biochemical
In short: as §2

B16F10 tumor vessels = assay: Histological analysis of microvessel density, anti-CD31 staining, B16F10 tumors; format: in vivo, mice; conditions: B16F10, 10 mg/kg; mean ± standard error, 20 images
Experimental: as §3, §4

B16F10 tumor = assay: TUNEL staining for total cell apoptosis, B16F10 tumors; format: in vivo, mice; conditions: B16F10, 10 mg/kg; mean ± standard error, 20 images
Experimental: as §6

[6] = Toxicity assays in tumor-bearing mice: behavior, body weight, organ morphology; format: in vivo; conditions: all in vivo tumor experiments
Experimental: as §5

ANIKLSVQMKLFKRHLKWKIIVKLNDGRELSLD [βpep-25, reference compound]
IC50 (LPS from S. marcascens; Table 2): 4.1 µM | IC50 (LPS from S. marcascens; Table 3, errors estimated ±30%): 4.1 µM | IC50 (LPS from K. pneumoniae; Table 2): 2 µM | IC50 (LPS from K. pneumoniae; Table 3, errors estimated ±30%): 2 µM | Branch Points (MA148 tumor vessels): 2.0 ± 0.5 pixel counts per image | End Points (MA148 tumor vessels): 16.6 ± 1.8 pixel counts per image | Vessel Density (MA148 tumor vessels): 7415 ± 686 pixel counts per image | Vessel Length (MA148 tumor vessels): 4.9 ± 0.6 pixel counts per image | Hematocrit levels ±SD [1]: 47±2.8 percentage of red blood cells | Apoptosis (MA148 tumor): 2418 ± 77 pixel counts per image | MA148 tumor inhibition shown previously [2]: 60 to 70% | IC50 (LPS from P. aeruginosa; Table 2): 1.2 µM | IC50 (LPS from P. aeruginosa; Table 3, errors estimated ±30%): 1.2 µM | IC50 against B16F10 tumor cells (B16F10 tumor cells): neither demonstrated activity | Hematocrit levels ±SD [3]: 52.5±3.5 percentage red blood cells | IC50 (LPS from S. typhimurium; Table 2): 2.5 µM | IC50 (LPS from S. typhimurium; Table 3, errors estimated ±30%): 2.5 µM | concentration giving 50% growth inhibition, fibroblasts (fibroblasts): no delectable effects | IC50 ([4]; Table 2): 2 µM | IC50 ([4]; Table 3, errors estimated ±30%): 2 µM | IC50 ([5]; Table 2, read-out: IC50 values (μM) for LPS binding, E. coli 055:B4): 2.5 µM | IC50 ([5]; Table 3, errors estimated ±30%, read-out: IC50 values (μM) for LPS binding, E. coli 055:B5): 2.5 µM | Branch Points (B16F10 tumor vessels): 4.5 ± 0.6 pixel counts per image | End Points (B16F10 tumor vessels): 31.9 ± 3.8 pixel counts per image | Vessel Density (B16F10 tumor vessels): 14050 ± 1826 pixel counts per image | Vessel Length (B16F10 tumor vessels): 10.2 ± 1.2 pixel counts per image | Apoptosis (B16F10 tumor): 3303 ± 606 pixel counts per image | signs of toxicity (behavior, weight gain, hematocrit), in words [6]: did not generally show signs of toxicity
